The test system of test [1] is stem cells (motor neuron precursors). The test is described as follows: Motor neuron identity (CHAT1) after freezing of stem cells. To be noted: frozen in solutions comprising 0.01 μM cyspA, or 20 nM Nec1, or 5 nM iMAC2; vs frozen in the absence of these compounds. Type of test: cell-based. An excerpt: Cellular freeze/thaw cycle causes stem cells to lose their identity, as measured by the level of CHAT1 in motor neurons. […] As shown here (FIG. 3), each of cyspA, Nec1, and IMAC2 provided cryoprotection to stem cells upon freezing, maintaining cellular characteristics. Cryoprotectants in solution used to freeze the cells, maintained motor neuron identity, as measure by the level of CHAT1.

Test [2] deals with primary mouse cortical neuron cells. The test can be described thus: Viability after freeze/thaw in solutions comprising different necrostatins. To be noted: necrostatin 20 nM with other components of the soln unchanged; vs vehicle cryopreserved with 10% DMSO. Type of test: cell-based. An excerpt:
Several analogs of necrostatins were studied and found to work similarly in their cryoprotective effect after freeze/thaw.

This is an account of results in patent US12053454B2, “Compositions for cryopreservation and methods of use thereof” (EVERGREEN BIOSCIENCES, priority 2017, dated 2024).

Structures are written as SMILES.

`Cl.Cl.OC(CN1CCNCC1)Cn1c2ccc(Br)cc2c2cc(Br)ccc21` (centres unmarked) [iMAC2, 3,6-Dibromo-a-(1-piperazinylmethyl)-9H-carbazole-9-ethanol dihydrochloride]: in test [1], the CHAT1 levels entry was “maintained CHAT1 levels”.

In the case of `COc1ccc2c(c1)C1=NN(C(C)=O)C(c3ccc(F)cc3)C1CC2` (centres unmarked) [Nec3], the percent viability entry in test [2] is reported as “significantly enhanced percent viability”.
